#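 Results reflect a 48-hour exposure of cells in 96-well plates to compound at five concentrations. At the GI50, growth is halved. At the TGI there is no net growth.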 Where a SMILES comes first, the peptide text is derived from it. [ ]: non-standard residue; d: D form. The star is where a group is joined. X28 = COC1=CC(=O)N(C(=O)[C@@H](O*)C(C)C)[C@H]1Cc1ccccc1; NMeL = CN[C@@H](CC(C)C)C(=O)O; Cbz = O=C(OCc1ccccc1)*
# Experiments:
# Experiment in all cases: NCI anticancer screen, dose series, 48 h
# SF-539 CNS = test system: SF-539 CNS
# HT29 colon = test system: HT29 colon
# NCI-H23 lung = test system: NCI-H23 lung
# HL-60(TB) leukemia = test system: HL-60(TB) leukemia
# IGROV1 ovarian = test system: IGROV1 ovarian
# OVCAR-4 ovarian = test system: OVCAR-4 ovarian
# RPMI-8226 leukemia = test system: RPMI-8226 leukemia
# CCRF-CEM leukemia = test system: CCRF-CEM leukemia
# NCI-H460 lung = test system: NCI-H460 lung
# MDA-MB-435 = test system: MDA-MB-435
SMILES,TGI (SF-539 CNS),TGI (HT29 colon),TGI (NCI-H23 lung),TGI (HL-60(TB) leukemia),TGI (IGROV1 ovarian),TGI (OVCAR-4 ovarian),TGI (RPMI-8226 leukemia),TGI (CCRF-CEM leukemia),TGI (NCI-H460 lung),TGI (MDA-MB-435),GI50 (SF-539 CNS),GI50 (HT29 colon),GI50 (NCI-H23 lung),GI50 (HL-60(TB) leukemia),GI50 (IGROV1 ovarian),GI50 (OVCAR-4 ovarian),GI50 (RPMI-8226 leukemia),GI50 (CCRF-CEM leukemia),GI50 (NCI-H460 lung),GI50 (MDA-MB-435)
CC(C(O)c1ccccc1)[N+](=O)[O-] (stereo not given),49.1 µM,71.8 µM,> 100 µM,44.6 µM,34.4 µM,52.6 µM,47.5 µM,> 100 µM,> 100 µM,38.2 µM,,,,,,,,,,
CN1CCN(c2ccc3nc(-c4ccc5nc(-c6ccc(N(C)CCCl)cc6)[nH]c5c4)[nH]c3c2)CC1,0.462 µM,0.675 µM,7.4 µM,> 100 µM,0.391 µM,1.04 µM,16.5 µM,0.647 µM,5.14 µM,0.281 µM,,,,,,,,,,
COC(=O)Nc1nc2ccc(NS(=O)(=O)c3ccc(F)cc3)cc2[nH]1,52.9 µM,37.4 µM,> 100 µM,8.45 µM,9.93 µM,> 100 µM,81.2 µM,> 100 µM,> 100 µM,11.2 µM,,,,,,,,,,
Cc1cc2nc(NS(=O)(=O)c3cc(C)c(Cl)cc3S)[nH]c2cc1C,> 100 µM,> 100 µM,> 100 µM,> 100 µM,> 100 µM,> 100 µM,> 100 µM,81.8 µM,43.1 µM,> 100 µM,,,,,,,,,,
O=C(/C=C/c1ccsc1)c1ccc(Cl)s1,> 100 µM,> 100 µM,> 100 µM,57.2 µM,> 100 µM,> 100 µM,45.5 µM,63.9 µM,> 100 µM,79.9 µM,,,,,,,,,,
COc1ccc(C2c3c(-c4ccccc4)nn(-c4ccccc4)c3Oc3ncn(N)c(=N)c32)cc1OC (stereo not given),2.6 µM,4.32 µM,6.66 µM,> 100 µM,3.2 µM,7.33 µM,> 25.1 µM,> 100 µM,3.27 µM,4.2 µM,,,,,,,,,,
O=C(O)c1ccc(/C=N\N(CCO)C2=NCCN2)cc1,> 100 µM,> 100 µM,> 100 µM,> 100 µM,> 100 µM,> 100 µM,> 100 µM,> 100 µM,> 100 µM,> 100 µM,,,,,,,,,,
COc1cc(OC)c(NC2=NCCO2)cc1Cl,53.3 µM,47.8 µM,58.1 µM,> 100 µM,> 100 µM,> 100 µM,> 100 µM,> 100 µM,45.9 µM,38.4 µM,,,,,,,,,,
CN(c1ccccc1Cl)S(=O)(=O)c1ccccc1,> 100 µM,> 100 µM,> 100 µM,> 100 µM,> 100 µM,> 100 µM,> 100 µM,> 100 µM,> 100 µM,> 100 µM,,,,,,,,,,
O=c1[nH]c2cc([N+](=O)[O-])c(N(CCO)CCO)c([N+](=O)[O-])c2[nH]1,77.1 µM,> 100 µM,> 100 µM,80.9 µM,> 100 µM,> 100 µM,98.1 µM,> 100 µM,43.2 µM,91.7 µM,,,,,,,,,,
Nc1nc(SCc2ccccc2[N+](=O)[O-])c2[nH]cnc2n1,> 100 µM,> 100 µM,> 100 µM,> 86.1 µM,> 68.4 µM,> 100 µM,> 100 µM,> 94.5 µM,> 76.1 µM,> 100 µM,,,,,,,,,,
COc1cc(C(c2cc(OC)c(OC)c(OC)c2)N2C(=O)CCC2C(=O)O)cc(OC)c1OC (stereo not given),> 100 µM,> 100 µM,> 100 µM,> 100 µM,> 100 µM,> 100 µM,> 100 µM,> 100 µM,> 100 µM,> 100 µM,,,,,,,,,,
CCNC(=O)CCCCC(=O)c1c(C)[nH]c(/C=C2\N=C(c3ccc[nH]3)C=C2OC)c1C,3.34 µM,7.68 µM,24.5 µM,5.41 µM,> 100 µM,4.36 µM,> 100 µM,> 100 µM,4.19 µM,7.74 µM,1.59 µM,2.34 µM,4.5 µM,2.06 µM,3.82 µM,1.76 µM,2.79 µM,2.59 µM,1.95 µM,2.77 µM
Nc1ccc(S(=O)(=O)c2ccc(N=[N+]([O-])c3ccc(S(=O)(=O)c4ccc(N)cc4)cc3)cc2)cc1,58.1 µM,> 100 µM,> 82.8 µM,> 100 µM,> 100 µM,> 62.6 µM,> 100 µM,> 100 µM,> 100 µM,> 100 µM,,,,,,,,,,
COC(=O)C1(Cc2ccc3c(c2)CCC3)Cc2cc3c(cc2C1=O)CCC3 (stereo not given),> 46.4 µM,> 46.4 µM,> 46.4 µM,17.9 µM,> 46.4 µM,> 46.4 µM,31.3 µM,> 46.4 µM,> 46.4 µM,43 µM,,,,,,,,,,
COC1=CC(=O)N(C(=O)[C@@H](OC(=O)[C@@H]2CCCN2C(=O)[C@@H]2CCCN2C(=O)[C@H](CC(C)C)N(C)C(=O)[C@@H](NC(=O)[C@@H](NC(=O)OCc2ccccc2)C(C)C)C(C)C)C(C)C)[C@H]1Cc1ccccc1 (Cbz-VV[NMeL]PP-X28),43.8 µM,> 100 µM,> 100 µM,> 100 µM,> 100 µM,> 100 µM,> 100 µM,> 100 µM,> 100 µM,> 100 µM,,,,,,,,,,
COc1cc(C(=O)OC2CC(C)=CC[C@@]3(C)CC[C@](O)(C(C)C)C23)ccc1O (stereo not given in full),29.7 µM,29.8 µM,32.6 µM,> 100 µM,33.4 µM,30 µM,53.1 µM,69 µM,32.5 µM,> 100 µM,,,,,,,,,,

SMILES,TGI (SF-539 CNS),TGI (HT29 colon),TGI (NCI-H23 lung),TGI (HL-60(TB) leukemia),TGI (IGROV1 ovarian),TGI (OVCAR-4 ovarian),TGI (RPMI-8226 leukemia),TGI (CCRF-CEM leukemia),TGI (NCI-H460 lung),TGI (MDA-MB-435),GI50 (SF-539 CNS),GI50 (HT29 colon),GI50 (NCI-H23 lung),GI50 (HL-60(TB) leukemia),GI50 (IGROV1 ovarian),GI50 (OVCAR-4 ovarian),GI50 (RPMI-8226 leukemia),GI50 (CCRF-CEM leukemia),GI50 (NCI-H460 lung),GI50 (MDA-MB-435)
CCCCCCCCC[C@@H]1C[C@@H]2CCC3C(C(=O)OCCCCNC(=O)OCc4ccccc4)=C(C)NC(=N1)N32 (stereo not given in full),14.4 µM,12.9 µM,6.78 µM,4.01 µM,6.11 µM,21.3 µM,4.44 µM,8.93 µM,13.3 µM,9.82 µM,,,,,,,,,,
O=C(O)C1(CC(CCCN2CCCCC2)c2ccccc2)CCCC1 (stereo not given),> 100 µM,> 100 µM,> 100 µM,> 100 µM,> 100 µM,> 100 µM,> 100 µM,> 100 µM,> 100 µM,> 100 µM,,,,,,,,,,
OC(C1CCCC1=N/N=C1/CCCC1C(O)(C(F)(F)Cl)C(F)(F)Cl)(C(F)(F)Cl)C(F)(F)Cl (stereo not given),> 10 µM,> 10 µM,> 10 µM,> 10 µM,> 10 µM,> 10 µM,> 10 µM,> 10 µM,> 10 µM,> 10 µM,,,,,,,,,,
CCC(c1nc2ccccc2c(=O)n1NC(=O)C(C)(C)C)C1(O)CCCCC1 (stereo not given),> 100 µM,> 100 µM,> 100 µM,> 100 µM,> 100 µM,> 100 µM,> 100 µM,> 100 µM,> 100 µM,> 100 µM,,,,,,,,,,
Cc1ccc(-c2nc3n(c2/C=N\N=C(N)N)CCS3)cc1,28.5 µM,27.3 µM,30.4 µM,78.3 µM,28.3 µM,30.3 µM,68.8 µM,55.9 µM,32 µM,28.9 µM,,,,,,,,,,
O=C(OCc1c(-c2ccccc2)nn(-c2ccccc2)c1COC(=O)Oc1ccccc1)Oc1ccccc1,> 100 µM,> 100 µM,> 100 µM,> 100 µM,> 100 µM,> 100 µM,> 100 µM,> 100 µM,> 100 µM,> 100 µM,,,,,,,,,,
COC(=O)C1=C2Nc3ccccc3C23CCN2C(O)C4(CC5CC67CCOC6CCN6CCC8(c9cccc(OC)c9N(C4)C58O)C67)C4OCCC4(C1)C23 (stereo not given),> 100 µM,> 100 µM,> 100 µM,> 100 µM,> 100 µM,> 100 µM,> 100 µM,> 100 µM,> 100 µM,> 100 µM,,,,,,,,,,
CC(=N\N=C\c1ccccn1)/C(C)=N/N=C/c1ccccn1,> 100 µM,> 100 µM,> 100 µM,> 100 µM,> 100 µM,> 100 µM,> 100 µM,> 100 µM,> 100 µM,> 100 µM,,,,,,,,,,
CC(=O)O[C@@H]1CC2[C@@H](CCC3Cc4nc5c(nc4C[C@@]32C)CC2CC[C@@H]3C(CC[C@@]4(C)C3CC[C@@H]4C(C)CCCC(C)C)[C@@]2(C)C5)C2C[C@@H]3OC4(CCC(C)CO4)C(C)[C@@H]3[C@]21C (stereo not given in full),> 100 µM,> 100 µM,> 100 µM,> 100 µM,> 100 µM,> 100 µM,> 100 µM,> 100 µM,> 100 µM,> 100 µM,,,,,,,,,,
CN(C)C(=O)CO/N=C1/C(c2c(O)[nH]c3ccccc23)=Nc2ccccc21,> 100 µM,> 100 µM,> 100 µM,> 100 µM,> 100 µM,> 100 µM,> 100 µM,> 100 µM,> 100 µM,> 100 µM,,,,,,,,,,
CC1=NN(c2cccc(Cl)c2)C2(C1)SCC(=O)N2c1nc2ccccc2s1 (stereo not given),45.8 µM,63.8 µM,84.5 µM,43.1 µM,> 100 µM,> 100 µM,38.6 µM,62.6 µM,58.8 µM,79.7 µM,,,,,,,,,,
CCOc1ccc(-n2c(=O)n3c(Nc4ccc(Cl)cc4)nc4c(c(=O)n(C)c(=O)n4C)n3c2=O)cc1,> 100 µM,> 100 µM,64.2 µM,51.7 µM,> 100 µM,> 100 µM,61.4 µM,52.9 µM,36.1 µM,39.7 µM,,,,,,,,,,
CC1(C)CC(=O)C2=C(C1)N(c1ccccc1)C1(O)C=CC(=O)C3=C(O)c4ccccc4C(=O)C321 (stereo not given),70.6 µM,54 µM,84 µM,> 100 µM,75.5 µM,43.9 µM,> 100 µM,> 100 µM,83.9 µM,54 µM,,,,,,,,,,
Cn1c2cc(Cl)ccc2c2ccc3c(c21)C(=O)C=CC3=O,> 78.8 µM,> 64.6 µM,54.4 µM,45.9 µM,> 63.1 µM,52.3 µM,23.7 µM,31.4 µM,> 100 µM,> 60.1 µM,,,,,,,,,,
Cc1noc(C)c1N=Nc1ccc2nonc2c1N,92.5 µM,> 100 µM,> 100 µM,> 100 µM,> 100 µM,> 100 µM,> 100 µM,> 100 µM,> 100 µM,> 100 µM,,,,,,,,,,
OC1NC2CC3NC(O)C(O)NC3CC2NC1O (stereo not given),> 100 µM,> 100 µM,> 100 µM,> 100 µM,> 100 µM,> 100 µM,> 100 µM,> 100 µM,> 100 µM,> 100 µM,,,,,,,,,,
CS(=O)(=O)OC1CCN(C2(c3cccc(O)c3)CCCCC2)CC1,89.9 µM,> 100 µM,> 100 µM,38.2 µM,> 100 µM,> 100 µM,49 µM,60.5 µM,> 100 µM,> 100 µM,,,,,,,,,,

# Source: PubChem BioAssay (NCI)
